In ChEMBL document CHEMBL2069184, “A Back-to-Front Fragment-Based Drug Design Search Strategy Targeting the DFG-Out Pocket of Protein Tyrosine Kinases” (ACS Med Chem Lett, 2012):

What was measured:
[1] = target: T1, Vascular endothelial growth factor receptor 2 (Homo sapiens, UniProt P35968); experiment: Inhibition of human phosphorylated N-terminal-His6 tagged VEGFR2 catalytic domain using 5-FAM-EEPLYWSFPAKKK-CONH2 as substrate after 60 mins by mobility shift assay
[2] = target: T1, Vascular endothelial growth factor receptor 2; experiment: Inhibition of human unphosphorylated N-terminal-His6 tagged VEGFR2 catalytic domain using 5-FAM-EEPLYWSFPAKKK-CONH2 as substrate after 60 mins by mobility shift assay
[3] = target: T1, Vascular endothelial growth factor receptor 2; conditions: 100 uM

T1 sequence (P35968 whole entry, the tested form may be a part): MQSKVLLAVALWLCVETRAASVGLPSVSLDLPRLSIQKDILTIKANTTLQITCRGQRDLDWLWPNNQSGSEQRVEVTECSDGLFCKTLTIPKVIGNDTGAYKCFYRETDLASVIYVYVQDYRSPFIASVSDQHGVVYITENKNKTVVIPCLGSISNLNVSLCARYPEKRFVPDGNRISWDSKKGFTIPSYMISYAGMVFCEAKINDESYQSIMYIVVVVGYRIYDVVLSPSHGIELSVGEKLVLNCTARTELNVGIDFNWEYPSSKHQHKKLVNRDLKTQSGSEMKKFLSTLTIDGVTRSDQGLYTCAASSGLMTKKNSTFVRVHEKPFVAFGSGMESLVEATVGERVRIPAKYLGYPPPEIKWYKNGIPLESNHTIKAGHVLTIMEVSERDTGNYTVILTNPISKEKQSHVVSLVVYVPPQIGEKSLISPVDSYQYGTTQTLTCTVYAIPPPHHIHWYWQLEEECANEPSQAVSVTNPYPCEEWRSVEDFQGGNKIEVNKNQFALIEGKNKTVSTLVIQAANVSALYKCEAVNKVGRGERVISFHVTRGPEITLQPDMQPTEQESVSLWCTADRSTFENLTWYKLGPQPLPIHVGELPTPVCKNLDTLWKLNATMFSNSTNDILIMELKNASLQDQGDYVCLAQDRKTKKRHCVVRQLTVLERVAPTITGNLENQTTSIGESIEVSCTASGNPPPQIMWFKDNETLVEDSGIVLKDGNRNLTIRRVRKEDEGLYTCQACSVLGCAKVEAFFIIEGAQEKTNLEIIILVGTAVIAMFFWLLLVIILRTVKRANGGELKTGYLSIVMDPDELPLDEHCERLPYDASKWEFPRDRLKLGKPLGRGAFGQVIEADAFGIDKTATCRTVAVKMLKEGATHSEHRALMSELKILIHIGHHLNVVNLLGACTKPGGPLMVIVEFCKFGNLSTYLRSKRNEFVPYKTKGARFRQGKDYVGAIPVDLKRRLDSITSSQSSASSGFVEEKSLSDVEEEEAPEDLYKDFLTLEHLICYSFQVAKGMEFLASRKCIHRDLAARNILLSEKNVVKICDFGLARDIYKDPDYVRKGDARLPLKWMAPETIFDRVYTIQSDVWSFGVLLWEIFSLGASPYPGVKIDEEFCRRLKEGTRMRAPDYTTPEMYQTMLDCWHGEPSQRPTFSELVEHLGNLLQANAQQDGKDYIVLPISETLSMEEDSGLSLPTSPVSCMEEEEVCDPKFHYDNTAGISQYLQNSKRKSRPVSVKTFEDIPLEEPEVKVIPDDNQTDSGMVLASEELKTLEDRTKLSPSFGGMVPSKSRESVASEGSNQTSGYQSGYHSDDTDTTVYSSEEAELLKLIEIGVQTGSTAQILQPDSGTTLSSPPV

Compound: c1ccc2c3c([nH]c2c1)-c1n[nH]cc1CCC3
- IC50 [1]: 0.86 µM
- IC50 [2]: 0.62 µM

Compound: Cc1oc(-c2ccccc2)nc1COc1cccc(CO)c1
- IC50 [1]: > 100 µM
- inhibition [3]: 8%
- IC50 [2]: 50 µM
- Ki [2]: 25 µM

Compound: O=C(Nc1cccc(C(F)(F)F)c1)Nc1ccccc1Cl
- IC50 [1]: > 100 µM
- IC50 [2]: 4.4 µM
